Assay results reported in PMC6403188, “Species-Specific Structural Requirements of Alpha-Branched Trehalose Diester Mincle Agonists” (Frontiers in Immunology, 2019).
“Also recorded” adds a separate entry of the source.

Key:
[1] = test system: Hek Blue human or mouse Mincle-expressing cells; type: cell-based; conditions: top concentrations, 24 h; compared with vehicle only-treated cells
RAW264.7 cells = assay: Liposome formulations tested in RAW264.7 cells, TNFα ELISA; type: cell-based, mouse; conditions: formulated in DDA:DSPC liposome, 24 hours
BALB/c mice [2] = assay: Anti-M72 serum antibody ELISA after i.m. vaccination with M72 antigen plus liposomal adjuvant; type: in vivo, mouse
Procedure: (§1) Animal studies were carried out in an OLAW and AAALAC accredited vivarium in accordance with University of Montana's IACUC guidelines for the care and use of laboratory animals. Groups of 10–14 BALB/c mice were vaccinated intramuscularly with 0.125 μg M72 antigen and indicated concentrations of various CLR adjuvant candidates (liposomal formulations) in 50 μl total volume per injection. After 14 days, blood and serum samples were collected and a secondary vaccination was administered. At day 19 (5 days post-secondary vaccination), 3–6 mice per group were euthanized and spleens were harvested the assessment of cell-mediated immunity. At day 28 (14 days post booster vaccination) the remaining 7 mice in each group were euthanized and blood was collected for the measurement of M72 specific humoral immunity.
Sera was collected from mice 14 days post-primary and 14 days post-secondary injection and diluted according to the expected antibody response (between 1:10 and 1:5000). Plates were coated with 100 μl of the full-length M72 protein at 1 μg/mL. Following washing (PBS plus tween 20) and blocking (SuperBlock, Scytek Laboratories), plates were incubated with diluted serum for 1 h followed by anti-mouse IgG, IgG1, or IgG2a-HRP secondary antibody (Bethyl Laboratories) and TMB substrate (BD). Plates were read at 450 nm. Antibody titers were determined by calculating titer of each sample at OD 0.3.
Figure 6 Serum antibody levels from mice in response to vaccination with recombinant M72 antigen and various αTDE compounds. BALB/c mice, 10 per group, were vaccinated two times i.m. with 0.125 μg antigen plus 2, 10, or 50 nmol of the indicated adjuvant. Serum was analyzed from 7 mice at 14 days post-secondary vaccination for presence of anti-M72 IgG1 and IgG2a antibodies via ELISA.
(§2) Figure 8 B16 liposomes biases a Th17/Th2 adaptive immune response. BALB/c mice, 14 per group, were immunized twice, 14 days apart, i.m with 0.1, 1, or 10 μg of M72 antigen plus either blank DDA:DSPC liposome or B16 loaded (10 nmol final dose) liposome. (A,B) M72-specific serum antibody titers at 14 days post-secondary vaccination. (C–F) Spleens were harvested from mice at 5 days post-secondary vaccination and restimulated with 1 μg/mL whole antigen and transport inhibitors followed by surface staining for CD3, CD4, and CD8 and then intracellular cytokine staining. (C) Percent of live, CD3^+/CD4^+/IL5+ cells, (D) Percent of live, CD3^+/CD8^+/IFNγ+ cells, (E) Percent of live, CD3^+/CD4^+/IL17+ cells, and (F) Percent of live, CD3^+/CD8^+/IL17+ cells. ^*p < 0.05, ^**p < 0.01, ^****p < 0.001.

BALB/c mice [3] = assay: Splenocyte restimulation with M72 and intracellular cytokine staining of CD4/CD8 T cells after vaccination; type: in vivo, mouse
Procedure: as §1
Spleens were harvested from vaccinated mice 5 days after secondary injections and splenocytes were harvested by disruption of the spleens through a 100 μm filter. Red blood cells were lysed by incubation with red blood cell lysis buffer (Sigma) for 5 min followed by washing in 1x PBS. Cells were plated in a 96 well plate at 5 × 10^6 cells/well in 200 μL complete RPMI1640 media. Cells were incubated with 1 μg/mL M72 antigen for […] at 37°C. After 7 h, GolgiPlug (Brefeldin A, BD Biosciences) was added to each well and incubated at 37°C for a further 12 h. Following incubation, cells were stained with the cell surface antibodies against CD3e PerCP-Cy5.5 (Tonbo Biosciences, 145-2C11), CD4a APC-Cy7 (Tonbo Biosciences, RM4-5) and CD8a PE-Cy7 (Tonbo Biosciences, 53–6.7) and viability stain (Ghost 510, Tonbo Biosciences). Cells were treated with cytofix/cytoperm (BD) and stained with anti-IFNγ PE-CF594 (BD, XMG1.2), anti-IL2 FITC (Biolegend, JES6-5H4), anti-IL-5 PE (BD, TRFK5), anti-IL17A BV421 (Biolegend, TC11-18H10.1), and anti-TNFα APC (Invitrogen, MP6-XT22). Data was collected using an LSRII flow cytometer (BD) and analyzed using FlowJo 10.0 software (TreeStar). Splenocytes were gated on live, single cells, then CD3+ to identify all T cells, then gated as CD4+CD8- to identify CD4 T cells or CD4-CD8+ to identify CD8 T cells. Gates for intracellular cytokine positive CD4 or CD8 T cells are set based on re-stimulation of naïve splenocytes. Gating strategies for the detection of antigen specific CD4+ and CD8+ T cells are outlined in Supplemental Figure 3.
Figure 7 Induction of IL-17 producing CD4+ and CD8+ T cells from an αTDE adjuvanted M72 vaccine. BALB/c mice, 10 per group, were immunized two times i.m. with 0.125 μg antigen plus 2, 10, or 50 nmol of the indicated adjuvant. Spleens were harvested from a subset of 3 mice per group at 5 days post-secondary vaccination. Splenocytes were restimulated with 1 μg/mL whole antigen and transport inhibitors followed by surface staining for CD3, CD4, and CD8 and then intracellular cytokine staining. Data represent percentage of live, CD3^+/CD4^+, left, or CD3^+/CD8^+, right, cells that are also positive for IL-17A upon stimulation.
as §2
Supplemental Figure 10. Production of IFNɣ, IL-2, IL-5 or TNFα by CD4 or CD8 T cells in response to various CLR compounds. […]

With `CCCCCCCC(CCCCCCC)C(=O)OC[C@H]1O[C@H](O[C@H]2O[C@H](COC(=O)C(CCCCCCC)CCCCCCC)[C@@H](O)[C@H](O)[C@H]2O)[C@H](O)[C@@H](O)[C@@H]1O` [Compound B16] the “Cell viability of Mincle HEK cells” value [1] was “less substantial decreases”, the “TNFα secretion from RAW cells in response to liposome formulation” value (RAW264.7 cells) was “higher levels of TNFα secretion compared to B42” and the “M72 specific serum IgG1 and IgG2a antibody titers” value (BALB/c mice [2]; 10 nmol B16 liposome, increasing doses of M72 antigen (0.1, 1, 10 μg), 14 dp2) was “significantly improved”. For the same molecule, the “M72 specific serum antibody titers” value (BALB/c mice [2]; 10 nmol B16 liposome, lowest dose of M72 antigen (0.1 μg)) was “did not exhibit significantly higher antibody titers”, the “Anti-M72 serum IgG1 and IgG2a antibody” value (BALB/c mice [2]; 0.125 μg M72 antigen plus 2, 10, or 50 nmol adjuvant in DDA:DSPC liposomes, i.m. two times, 14 days post-secondary vaccination) was “neither compound significantly enhanced” and the “Frequencies of IFNγ+ CD8 T cells or IFNγ+ CD4 T cells” value (BALB/c mice [3]; 10 nmol B16, 0.1, 1 or 10 μg M72, between groups) was “no differences”. For the same molecule, the “IL-2+ CD4 T cells” value (BALB/c mice [3]; 10 nmol B16, 0.1, 1 or 10 μg M72, compared to blank liposome) was “similarly increased only in the middle dose”, the “Frequencies of TNFα+ CD4 T cells” value (BALB/c mice [3]; 10 nmol B16, compared to antigen matched blank liposome groups) was “not increased” and the “Frequencies of IL-5+ CD4 T cells” value (BALB/c mice [3]; 10 nmol B16, highest antigen dose tested) was “no difference is observed”. For the same molecule, the “Frequencies of IL-5+, IL-2+, and TNFα+ CD8 T cells” value (BALB/c mice [3]; 10 nmol B16, highest dose of antigen) was “not at the highest dose”, the “Frequencies of IL-5+, IL-2+, and TNFα+ CD8 T cells” value (BALB/c mice [3]; 10 nmol B16, lower doses of antigen, compared to antigen plus blank liposome) was “also increased” and the “Frequencies of IL-5+ CD4 T cells” value (BALB/c mice [3]; 10 nmol B16, two lower doses of antigen, compared to antigen plus blank liposome) was “similarly increased”. The “Frequencies of IL-17+ CD4 and CD8 T cells” value (BALB/c mice [3]; 10 nmol liposomal B16 with 0.1 μg and 1 μg M72/mouse, compared to antigen plus blank liposomes) was “significantly higher frequencies”, the “Frequencies of IL-17+ CD4 and CD8 T cells” value (BALB/c mice [3]; 10 nmol liposomal B16 with 10 μg M72, compared to antigen plus blank liposome) was “not significant” and the “IL-17+ CD4+ and CD8+ T cells (Th17 response) after M72 re-stimulation” value (BALB/c mice [3]; 0.125 μg antigen plus 2, 10, or 50 nmol liposomal adjuvant, i.m. two times, spleens 5 days post-secondary) was “greatest frequency of IL-17+ cells; also recorded: more effective”.
